Measured values as given in patent US8188121B2, “Substituted pyridines as antiparasitic AZA teraryl compounds” (The University of North Carolina at Chapel Hill, priority 2005, dated 2012).
Structures can show the parent of a compound that is named as a salt. Where two headings read alike, the source gives them in different places. Each block holds one compound with its values, some of them ahead of it.

Columns and labels:
[1] = test system: L-6 rat mycoblast cells; experiment: cells
Method: (§1) In vitro antiprotozoal activities were measured following established protocols. See Ismail, M. A., et al., J. Med. Chem., 46, 4761-4769 (2003); Stephens, C. E., et al., Bioorg. Med. Chem. Lett., 13, 2065-2069 (2003) (in vitro assay against Leishmania donovani).
(§2) Testing methods are as described above in Example 17.

[2] = test system: Plasmodium falciparum (P. f.); experiment: In vitro antiprotozoal activity against P. f.; format: cell-based
Method: as §1, §2

[3] = test system: Trypanosoma brucei rhodesiense (T. b. r.); experiment: In vitro antiprotozoal activity against T. b. r.; format: cell-based
Method: as §1, §2

[4] = test system: STIB 900 strain of Trypanosoma brucei rhodesiense; experiment: T. b. r. STIB 900 mouse model; format: in vivo; conditions: for responders at 100 mg/kg / responders at 20 mg/kg: Trypanosoma brucei, 1440 h; for responders at 100 mg/kg: read-out: Cures; for responders at 20 mg/kg: read-out: Cures (converted)
Method: The activities of compounds 20, 18, 21, 48, 23c, 24c, 5, 4, and 10 against the STIB 900 strain of Trypanosoma brucei rhodesiense (T. b. r.) in a mouse model are shown in Table 3. […] Groups of four mice were infected intraperitoneally with 2×10^5 bloodstream forms of T. b. r. STIB 900 which originates from a patient in Tanzania. On days 3, 4, 5, and 6 post-infection the experimental groups were treated with the indicated compound, either by the intraperitoneal route, or for prodrugs, by the oral route. Usually the highest tolerated dose was used. The highest tolerated dose was determined in a pretoxicological experiment.
Parasitemia of the mice was checked daily up to day 14 post-infection and thereafter 2 times per week up to day 60. One group of mice was not treated and acted as control. Untreated control animals expire between day 7 and 8 post-infection. For relapsing mice, the day of death was recorded and the survival time determined. For the data shown in Table 3, cures reflect the number of mice that survive and are parasite free for 60 days. Survival reflects the average days of survival.
as §2

[5] = Rattus norvegicus, L6, read-out: CT IC50
[6] = Plasmodium falciparum, Table 1, k/K = thousand
[7] = Trypanosoma brucei, RHODESIENSE, Table 1, k/K = thousand, read-out: T. b. r. IC50
[8] = 100 mg/kg po, days 3-6 post-infection, average days of survival
[9] = 100 mg/kg po, days 3-6 post-infection, mice surviving parasite free for 60 days, groups of four
[10] = 20 mg/kg ip, days 3-6 post-infection, average days of survival
[11] = 20 mg/kg ip, days 3-6 post-infection, mice surviving parasite free for 60 days, groups of four
[12] = read-out: CT IC50, Table 1, L-6 cells
[13] = Table 1, k/K = thousand, read-out: T. b. r. IC50
[14] = Rattus norvegicus, L6, read-out: CT IC50, Table 1, L-6 cells
[15] = Table 2, K = thousand, read-out: T. b. r. IC50
[16] = read-out: CT IC50, Table 4, L-6 cells

IC50 ([2]; Table 1, k/K = thousand): 0.925 µM
IC50 [3, 13]: > 201 µM
Structure (SMILES): NC(=NO)c1ccc(-c2ccc(-c3ccc(C(N)=NO)cc3)c(F)c2)cc1 [Compound 24a, 2′-Fluoro-[1,1′;4′,1″]terphenyl-4,4″-bis-N-hydroxycarboxamidine]
IC50 [1, 12]: 29.1 µM

IC50 ([2]; Table 1, k/K = thousand): 3.1 µM
IC50 [3, 13]: 29.9 µM
Structure (SMILES): NC(=NO)c1ccc(-c2ccc(-c3ccc(C(N)=NO)cc3)c(C(F)(F)F)c2)cc1 [Compound 24b, 2′-Trifluoromethyl-[1,1′;4′,1″]terphenyl-4,4″-bis-N-hydroxycarboxamidine]
IC50 [1, 12]: 13.3 µM

IC50 ([2]; Table 1, k/K = thousand): 4.2 µM
IC50 [3, 13]: > 51.5 µM
Structure (SMILES): CON=C(N)c1ccc(-c2ccc(-c3ccc(C(N)=NOC)cc3)c(F)c2)cc1 [Compound 25a, 2′Fluoro-[1,1′;4′,1″]terphenyl-4,4″-bis-methoxycarboxamidine]

IC50 ([2]; Table 1, k/K = thousand): 3.8 µM
IC50 [3, 13]: 36.9 µM
Structure (SMILES): CON=C(N)c1ccc(-c2ccc(-c3ccc(C(N)=NOC)cc3)c(C(F)(F)F)c2)cc1 [Compound 25b, 2′-Trifluoromethyl-[4′,1′;4′,1″]terphenyl-4,4″-bis-methoxycarboxamidine]
IC50 [1, 12]: 42.2 µM

IC50 ([2]; Table 1, k/K = thousand): 3.2 µM
IC50 [3, 13]: 34.7 µM
Structure (SMILES): CONC(=N)c1ccc(-c2ccc(-c3ccc(C(=N)NOC)cc3)nc2)cc1 [Compound 25c, Phenyl[1,1′]pyridyl[4′,1″]phenyl-4,4″-bis-N-methoxycarboxamidine]
IC50 [1, 12]: > 166 µM

IC50 ([2]; Table 1, k/K = thousand): 1.7 µM
IC50 [3, 13]: 142 µM
Structure (SMILES): CCOC(=O)N=C(N)Nc1ccc(-c2ccc(-c3ccc(NC(N)=NC(=O)OCC)cc3)cc2)cc1 [Compound 50a, 4,4″-Bis(N′-ethoxycarbonyl)-guanidino-[1,1′;4′,1″]terphenyl]
IC50 [1, 12]: > 181 µM

IC50 ([2]; Table 1, k/K = thousand): 8.9 µM
IC50 [3, 13]: 7.5 µM
Structure (SMILES): CCOC(=O)N=C(NC)Nc1ccc(-c2ccc(-c3ccc(NC(=NC(=O)OCC)NC)cc3)cc2)cc1 [Compound 50b, 4,4″-Bis(N′-ethoxycarbonyl-N″-methyl)-guanidino-[1,1′;4′,1″]terphenyl]
IC50 [1, 12]: 5.7 µM

IC50 ([2]; Table 1, k/K = thousand): 4.5 µM
IC50 [3, 13]: 14.2 µM
Structure (SMILES): CCOC(=O)N=C(Nc1ccc(-c2ccc(-c3ccc(NC(=NC(=O)OCC)NC(C)C)cc3)cc2)cc1)NC(C)C [Compound 50c, 4,4″-Bis(N′-ethoxycarbonyl-N″-isopropyl)-guanidino-[1,1′;4′,1″]terphenyl]
IC50 [1, 12]: 5.3 µM

IC50 ([2]; Table 1, k/K = thousand): 0.007 µM
IC50 [3, 13]: 0.018 µM
Structure (SMILES): CNC(=N)Nc1ccc(-c2ccc(-c3ccc(NC(=N)NC)cc3)cc2)cc1 [Compound 51a, 4,4″-Bis(N′-methyl)-guanidino-[1,1′;4′,1″]terphenyl]
IC50 [1, 12]: 65.1 µM

Further lines, the compound ahead of its results:

Structure (SMILES): N=C(NO)c1ccc(-c2ccc(-c3ccc(C(=N)NO)o3)cc2)cc1 [Compound 3, N-Hydroxy-5-[4′-(N-hydroxyamidino)-biphenyl-4-yl]-furan-2-carboxamidine]
IC50 [1, 5]: 106 µM
IC50 [2, 6]: 6.6 µM
IC50 [3, 7]: 67 µM

Structure (SMILES): CONC(=N)c1ccc(-c2ccc(-c3ccc(C(=N)NOC)o3)cc2)cc1 [Compound 4, N-Methoxy-5-[4′-(N-methoxyamidino)-biphenyl-4-yl]-furan-2-carboxamidine]
IC50 [1, 5]: > 206 µM
IC50 [2, 6]: 1.6 µM
IC50 [3, 7]: 24 µM
Survival [4, 8]: 29 days
responders at 100 mg/kg [4, 9]: 0%

Structure (SMILES): CC(=O)O.N=C(N)c1ccc(-c2ccc(-c3ccc(C(=N)N)o3)cc2)cc1 [Compound 5, 5-(4′-Amidinobiphenyl-4-yl)-furan-2-carboxamidine acetate salt]
IC50 [1, 5]: 2 µM
IC50 [2, 6]: 0.001 µM
IC50 [3, 7]: 0.005 µM
Survival [4, 10]: 21.25 days
responders at 20 mg/kg [4, 11]: 0%

Structure (SMILES): NC(=NO)c1ccc(-c2ccc(-c3ccc(C(N)=NO)cc3)cc2)cc1 [Compound 18, [1,1′;4′,1″]Terphenyl-4,4″-bis-N-hydroxycarboxamidine]
IC50 [1, 12]: > 212 µM
IC50 ([2]; Table 1, k/K = thousand): > 118 µM
IC50 [3, 13]: 22.8 µM
Survival [4, 8]: 24.75 days
Cures [4, 9]: 0/4

Structure (SMILES): CON=C(N)c1ccc(-c2ccc(-c3ccc(C(N)=NOC)cc3)cc2)cc1 [Compound 21, [1,1′;4′,1″]Terphenyl-4,4″-bis-N-methoxycarboxamidine]
IC50 [1, 5]: 118 µM
IC50 [2, 6]: 0.371 µM
IC50 [3, 7]: 13.8 µM
Survival [4, 8]: 20.75 days
responders at 100 mg/kg [4, 9]: 0%

Structure (SMILES): CC(=O)O.N=C(N)c1ccc(-c2ccc(-c3ccc(C(=N)N)cc3)nc2)cc1 [Compound 23c, Phenyl[1,1′]pyridyl[4′,1″]phenyl-4,4″-bis-carboxamidine acetate salt]
IC50 [1, 12]: 49.9 µM
IC50 ([2]; Table 1, k/K = thousand): 0.01 µM
IC50 [3, 13]: 0.002 µM
Survival [4, 10]: >60 days
Cures [4, 11]: 4/4

Structure (SMILES): N=C(NO)c1ccc(-c2ccc(-c3ccc(C(=N)NO)cc3)nc2)cc1 [Compound 24c, Phenyl[1,1′]pyridyl[4′,1″]phenyl-4,4″-bis-N-hydroxycarboxamidine]
IC50 [1, 12]: > 184 µM
IC50 ([2]; Table 1, k/K = thousand): 7.6 µM
IC50 [3, 13]: 9.3 µM
Survival [4, 8]: >35.75 days
Cures [4, 9]: 1/4

Structure (SMILES): N=C(N)c1ccc(-c2cnc(-c3ccc(C(=N)N)cc3)nc2)cc1 [Compound 27, 2,5-Bis-(4′-amidinophenyl)-pyrimidine]
IC50 [1, 14]: 40.9 µM
IC50 [2, 6]: 0.0005 µM

Structure (SMILES): CON=C(N)c1ccc(-c2ccc(-c3ccc(C(N)=NOC)nc3)cc2)cn1 [Compound 33, 1,4-Bis-[5′-(N-methoxyamidinopyridin-2′-yl)]phenylene]
IC50 [1, 12]: > 158 µM
IC50 ([2]; Table 1, k/K = thousand): 1.2 µM
IC50 [3, 13]: 82.9 µM

Structure (SMILES): N=C(N)c1ccc(Cc2ccc(-c3ccc(C(=N)N)cc3)nc2)cc1 [Compound 36a, 2-(4′-Amidinophenyl)-5-(4″-amidinobenzyl)pyridine acetate salt]
IC50 [1, 12]: 18.1 µM
IC50 ([2]; Table 1, k/K = thousand): 0.011 µM
IC50 [3, 13]: 0.041 µM

Structure (SMILES): NC(=NO)c1ccc(-c2ccc(-c3ccc(C(N)=NO)cc3)c3ccccc23)cc1 [Compound 39, Phenyl[1,1′]naphthyl-[4′,1″]phenyl-4,4″-bis-N-hydroxycarboxamidine]
IC50 [1]: 9.4 µM
IC50 ([2]; Table 2, K = thousand): 9.1 µM
IC50 [3, 15]: 13.4 µM

Structure (SMILES): CON=C(N)c1ccc(-c2ccc(-c3ccc(C(N)=NOC)cc3)c3ccccc23)cc1 [Compound 40, Phenyl[1,1′]naphthyl-[4′,1″]phenyl-4,4″-bis-N-methoxycarboxamidine]
IC50 [1]: 16.2 µM
IC50 ([2]; Table 2, K = thousand): 3.9 µM
IC50 [3, 15]: 29.5 µM

Structure (SMILES): N=C(N)Nc1ccc(-c2ccc(-c3ccc(NC(=N)N)cn3)cc2)nc1 [Compound 55, 1,4-Bis-(5′-guanidinopyridin-2′-yl)phenylene hydrochloride salt]
IC50 [1, 14]: 152 µM
IC50 [2, 6]: 0.151 µM
IC50 [3, 7]: 0.169 µM

Structure (SMILES): Cl.NC(=NO)c1ccc(-c2ccc(-c3ccc(C(N)=NO)nc3)cc2)cn1 [Compound 67, 1,4-Bis-[2′-(N-hydroxyamidinopyridin-5′-yl)]-phenylene hydrochloride salt]
IC50 [1, 12]: 8.1 µM
IC50 ([2]; Table 1, k/K = thousand): 2.4 µM
IC50 [3, 13]: 12 µM
Cures ([4]; 25 mg/kg po, Table 5): 0/4
Survival ([4]; 25 mg/kg po, Table 5): 16.25 days

Structure (SMILES): CON=C(N)c1ccc(-c2ccc(-c3ccc(C(N)=NOC)nc3)cc2)cn1 [Compound 68, 1,4-Bis-[2′-(N-methoxyamidinopyridin-5′-yl)]-phenylene hydrochloride salt]
IC50 ([1]; read-out: CT IC50, Table 1, L-6 cells, hydrochloride salt): > 194 µM
IC50 [1, 16]: > 193 µM
IC50 ([2]; Table 1, k/K = thousand, hydrochloride salt): 5.5 µM
IC50 ([2]; Table 4): 0.637 µM
IC50 ([3]; Table 1, k/K = thousand, hydrochloride salt, read-out: T. b. r. IC50): 141 µM
IC50 ([3]; Table 4, read-out: T. b. IC50): 4.57 µM

Structure (SMILES): CN(C)CC(=O)ON=C(N)c1ccc(-c2ccc(-c3ccc(C(N)=NOC(=O)CN(C)C)nc3)cc2)cn1 [Compound 69, 1,4-Bis-{2′-[N-(N′,N′-dimethylaminoacetoxy)amidinopyridin-5′-yl]}-phenylene]
Cures ([4]; 25 mg/kg po, Table 5): 0/4
Survival ([4]; 25 mg/kg po, Table 5): 28.25 days

Structure (SMILES): CON=C(N)c1ccc(-c2ccc(-c3ccc(C(N)=NOC)nc3)cn2)cc1.Cl [Compound 91, Phenyl[1,2′]pyridinyl[5′,5″]pyridinyl-4,2″-bis-N-methoxyamidine hydrochloride salt]
IC50 [1, 16]: 12.8 µM
IC50 ([2]; Table 4): 2.15 µM
IC50 ([3]; Table 4, read-out: T. b. IC50): 1.98 µM
Cures ([4]; 25 mg/kg ip, Table 5): 0/4
Survival ([4]; 25 mg/kg ip, Table 5): 22.25 days

Structure (SMILES): N=C(N)c1ccc(OCCCCCOc2ccc(C(=N)N)cc2)cc1 [pentamidine, reference compound]
Survival [4, 10]: 42.7 days
responders at 20 mg/kg [4, 11]: 0%
